Experimental data taken from the supplement of paper PMC10307832.

Legend:
Assay in all cases: relative viability (nuclei count vs DMSO), 5 days (fraction); higher = more cells survive
Alpelisib + Trametinib = compound: Cc1nc(NC(=O)N2CCC[C@H]2C(N)=O)sc1-c1ccnc(C(C)(C)C(F)(F)F)c1 [Alpelisib] + CC(=O)Nc1cccc(-n2c(=O)n(C3CC3)c(=O)c3c(Nc4ccc(I)cc4F)n(C)c(=O)c(C)c32)c1 [Trametinib] (partner 0.02 µM)
Method in brief: (§1)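 After 5 days of treatment, lung cancer cells in 1536-well plates were fixed and stained in a single step (final 0.05% Triton X-100, 1% formaldehyde, 1 ug/ml Hoechst) and their nuclei counted on 4× images. Treatment had been applied by pin tool the day after seeding as one drug alone or as a fixed anchor-drug dose with five library-drug doses (not always all listed) in √10 steps. Relative viability is the nuclei count of treated wells divided by that of vehicle wells, and values are medians of duplicate plates.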

Vemurafenib + Crizotinib = compound: CCCS(=O)(=O)Nc1ccc(F)c(C(=O)c2c[nH]c3ncc(-c4ccc(Cl)cc4)cc23)c1F [Vemurafenib] + C[C@@H](Oc1cc(-c2cnn(C3CCNCC3)c2)cnc1N)c1c(Cl)ccc(F)c1Cl [Crizotinib] (partner 1 µM)
Method in brief: as §1

Vemurafenib + Trametinib = compound: CCCS(=O)(=O)Nc1ccc(F)c(C(=O)c2c[nH]c3ncc(-c4ccc(Cl)cc4)cc23)c1F [Vemurafenib] + CC(=O)Nc1cccc(-n2c(=O)n(C3CC3)c(=O)c3c(Nc4ccc(I)cc4F)n(C)c(=O)c(C)c32)c1 [Trametinib] (partner 0.02 µM)
Method in brief: as §1

OSI-027 + Phenformin = compound: COc1cccc2cc(-c3nc([C@H]4CC[C@H](C(=O)O)CC4)n4ncnc(N)c34)[nH]c12 [OSI-027] + N=C(N)NC(=N)NCCc1ccccc1 [Phenformin] (partner 250 µM)
Method in brief: as §1

Row | Cell Line | relative viability (Alpelisib + Trametinib; first compound 0.04 µM) | relative viability (Alpelisib + Trametinib; first compound 0.1265 µM) | relative viability (Alpelisib + Trametinib; first compound 0.4 µM) | relative viability (Alpelisib + Trametinib; first compound 1.265 µM) | relative viability (Alpelisib + Trametinib; first compound 4 µM) | relative viability (Vemurafenib + Crizotinib; first compound 0.03162 µM) | relative viability (Vemurafenib + Crizotinib; first compound 0.1 µM) | relative viability (Vemurafenib + Crizotinib; first compound 0.3162 µM) | relative viability (Vemurafenib + Crizotinib; first compound 1 µM) | relative viability (Vemurafenib + Trametinib; first compound 0.03162 µM) | relative viability (Vemurafenib + Trametinib; first compound 0.1 µM) | relative viability (Vemurafenib + Trametinib; first compound 0.3162 µM) | relative viability (Vemurafenib + Trametinib; first compound 1 µM) | relative viability (OSI-027 + Phenformin; first compound 0.01 µM) | relative viability (OSI-027 + Phenformin; first compound 0.03162 µM) | relative viability (OSI-027 + Phenformin; first compound 0.1 µM) | relative viability (OSI-027 + Phenformin; first compound 0.3162 µM) | relative viability (OSI-027 + Phenformin; first compound 1 µM)
1 | NCI-H2126 | 0.545 | 0.504 | 0.526 | 0.416 | 0.381 | 1.02 | 1.04 | 1.02 | 1.04 | 0.513 | 0.535 | 0.564 | 0.543 | 0.527 | 0.555 | 0.437 | 0.405 | 0.404
2 | HCC-44 | 1.05 | 1.12 | 1.03 | 0.849 | 0.81 | 0.749 | 0.867 | 0.809 | 0.813 | 1.01 | 1 | 1.02 | 1.14 | 0.16 | 0.229 | 0.127 | 0.158 | 0.12
3 | HOP-62 | 0.353 | 0.376 | 0.434 | 0.384 | 0.384 | 0.905 | 0.987 | 0.94 | 0.862 | 0.419 | 0.36 | 0.416 | 0.594 | 0.648 | 0.565 | 0.716 | 0.77 | 0.388
4 | LCLC-103H | 0.669 | 0.693 | 0.646 | 0.567 | 0.475 | 1.06 | 1.06 | 1.01 | 1.09 | 0.668 | 0.619 | 0.685 | 0.768 | 0.348 | 0.337 | 0.36 | 0.284 | 0.272
5 | HARA | 0.633 | 0.732 | 0.529 | 0.257 | 0.265 | 1.04 | – | 1.09 | 1.07 | 0.742 | 0.325 | 0.71 | 0.757 | 0.439 | 0.425 | 0.488 | 0.408 | 0.261
6 | NCI-H2087 | 0.183 | 0.174 | 0.195 | 0.163 | 0.164 | 0.844 | 1 | – | 0.79 | 0.204 | 0.14 | 0.292 | 0.256 | 0.495 | 0.492 | 0.424 | 0.398 | 0.271
7 | NCI-H520 | 0.62 | 0.574 | 0.549 | 0.491 | 0.429 | 0.659 | 0.755 | 0.765 | 0.703 | 0.688 | 0.599 | 0.706 | 0.662 | 0.581 | 0.456 | 0.28 | 0.21 | 0.187
8 | HCC-78 | 0.578 | 0.779 | 0.816 | 0.458 | 0.53 | 0.315 | 0.277 | 0.376 | 0.333 | 0.783 | 0.609 | 1.06 | 0.838 | 0.624 | 0.626 | 0.593 | 0.558 | 0.432
9 | COR-L 105 | 0.422 | 0.458 | 0.493 | 0.37 | 0.447 | 0.623 | – | 0.661 | 1.13 | 0.418 | – | 0.428 | 0.655 | 0.47 | 0.466 | 0.479 | 0.351 | 0.359
10 | NCI-H1437 | 0.434 | 0.492 | 0.539 | 0.382 | 0.304 | 0.801 | 0.937 | 0.895 | 0.906 | 0.474 | 0.538 | 0.626 | 0.629 | 0.31 | 0.292 | 0.296 | 0.286 | 0.211
